In PubChem BioAssay (NCI) one finds GI50 and TGI data, which are given here for 24 compounds.

Where “and” joins values, the source holds several entries; their conditions need not be identical. Identical values can stand only once.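 In this assay, cells in 96-well plates receive the compound at five concentrations for 48 hours. Endpoints are linearly interpolated between the surrounding concentrations. Abbreviation: GI50, concentration required for 50% inhibition of growth. TGI denotes the concentration required for complete inhibition of growth.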 Bounds are passed on as bounds.

Among the test systems are PC-3 prostate; MDA-MB-435; NCI/ADR-RES ovarian; DMS 273 small cell lung; M19-MEL melanoma; RXF-631 renal; LXFL 529 NSCLC; MDA-N.
Holding throughout (test): DTP human tumour cell line panel, 48 h

A word on the GI50: it is the concentration at which growth is held to half of that of the control. A word on the TGI: it is the concentration giving total growth inhibition. A low value points to greater sensitivity of the cells. As to `COc1cc(OC)c(/C=C/c2ccc3ccccc3[n+]2C)c(OC)c1`, the GI50 with PC-3 prostate is 1.82 µM; in the assay with MDA-MB-435 it was 0.342 µM; in the assay with NCI/ADR-RES ovarian, greater than 66.4 µM. For the same compound, the total growth inhibition concentration (TGI) with PC-3 prostate was 17.3 µM; in the assay with MDA-MB-435 it was 1.53 µM; with NCI/ADR-RES ovarian, greater than 100 µM.

Turning to `C=CCc1cc2cccc(OC)c2oc1=O`, the TGI with DMS 273 small cell lung, in the assay with M19-MEL melanoma, in the assay with RXF-631 renal and with LXFL 529 NSCLC was greater than 100 µM in each case.

Take `Cc1nn(C(=O)c2ccccc2O)c2c1C(c1ccccc1)SC(N)=N2` (stereo not drawn): the concentration for total growth inhibition (TGI) in the assay on PC-3 prostate, in the assay on MDA-N, in the assay with MDA-MB-435 and in the assay with NCI/ADR-RES ovarian was greater than 10 µM throughout.

For the compound `O=C(Nc1ccccc1C(F)(F)F)c1cccc(NC2=C(Cl)C(=O)N(Cc3ccccc3)C2=O)c1`, the GI50 in the assay with PC-3 prostate was 8.78 µM; in the assay on MDA-MB-435 it was 4.2 µM; with NCI/ADR-RES ovarian, 9.14 µM. The TGI in the assay on PC-3 prostate was greater than 53 µM; with MDA-MB-435 it was greater than 33 µM; with NCI/ADR-RES ovarian it was 40.7 µM.

As to `O=c1ccn(C2OC(CO)C(O)C2O)c(=O)[nH]1` (stereo not drawn), the GI50 in the assay with PC-3 prostate, with MDA-N, in the assay on MDA-MB-435 and in the assay on NCI/ADR-RES ovarian was greater than 1000 µM throughout. Besides, the concentration for total growth inhibition (TGI) in the assay on PC-3 prostate, with MDA-N, with MDA-MB-435 and with NCI/ADR-RES ovarian was greater than 1000 µM in each case.

Consider `O=C1c2cc(Br)ccc2-c2c1c1ccc([N+](=O)[O-])cc1c(=O)n2CCCCl`, for which the 50% growth inhibitory concentration (GI50) in the assay on PC-3 prostate is 0.184 µM; in the assay with MDA-MB-435 it was 0.489 µM; in the assay with NCI/ADR-RES ovarian it was 0.239 µM. In addition, the TGI with PC-3 prostate is greater than 100 µM; in the assay on MDA-MB-435, 6.12 µM; with NCI/ADR-RES ovarian it was 7.9 µM.

With `COP1(=O)CC2C(Cl)(Cl)C2(C)C1` (stereo not drawn), the concentration for total growth inhibition (TGI) in the assay on DMS 273 small cell lung, in the assay on M19-MEL melanoma and in the assay on LXFL 529 NSCLC was greater than 100 µM in each case.

On to `Cc1c(CCCl)c(=O)n2c([nH]c3ccccc32)c1C#N`, for which the TGI in the assay with PC-3 prostate was determined as 2.82 µM; in the assay on MDA-N, 3.33 µM; in the assay with MDA-MB-435 it was 4.05 µM; with NCI/ADR-RES ovarian it was 2.7 µM.

Turning to `Oc1ccc(N=Nc2ccc(Cl)cc2)cc1`, the TGI was 29.3 µM in the assay on PC-3 prostate, 30.6 µM in the assay with MDA-N, 29 µM with MDA-MB-435 and 51.3 µM in the assay with NCI/ADR-RES ovarian.

Consider `COc1ccc(-c2c(C3=NCCN3)nnn2-c2ccccc2)cc1`, for which the TGI in the assay on DMS 273 small cell lung, in the assay with M19-MEL melanoma and in the assay on LXFL 529 NSCLC was greater than 100 µM in each case.

Take `COc1cc(/C=C/c2cc(C(F)(F)F)[nH]c(=O)n2)ccc1OCc1ccccc1F`: the GI50 in the assay on PC-3 prostate was 9.06 µM; in the assay with MDA-MB-435, 3.77 µM; with NCI/ADR-RES ovarian, 14.7 µM. Also, the TGI in the assay with PC-3 prostate was 29 µM; with MDA-MB-435 it was 17 µM; in the assay with NCI/ADR-RES ovarian it was greater than 100 µM.

Turning to `Cc1cc2nc3c(=O)n(C)c(=O)nc-3n(-c3ccc(Cl)cc3)c2cc1C`, the total growth inhibition concentration (TGI) in the assay with DMS 273 small cell lung worked out at 20.6 µM; in the assay on M19-MEL melanoma, 5.74 µM; with LXFL 529 NSCLC, 27.5 µM.

As to `CC(=O)NC1=N/C(=C/c2cc([N+](=O)[O-])ccc2O)CN1C`, the concentration for total growth inhibition (TGI) in the assay on PC-3 prostate, in the assay with MDA-N, in the assay on MDA-MB-435 and with NCI/ADR-RES ovarian was greater than 100 µM throughout.

As for `CCCCC#COP(=O)(OCC)OCC`, the total growth inhibition concentration (TGI) in the assay with M19-MEL melanoma, in the assay on RXF-631 renal and with LXFL 529 NSCLC was greater than 100 µM in each case.

As for `O=C(Nc1ccccc1)c1ccc(Cl)c([N+](=O)[O-])c1`, the results for the TGI with DMS 273 small cell lung, with M19-MEL melanoma and with LXFL 529 NSCLC were 14.2 µM, 34.3 µM and 18.5 µM, respectively.

`O=[N+]([O-])c1ccc2[nH]cc(-c3c4ccsc4cc4[nH]c5ccc([N+](=O)[O-])cc5c34)c2c1`: the GI50 in the assay on PC-3 prostate was 0.931 µM; in the assay with MDA-MB-435 it was 0.145 µM; with NCI/ADR-RES ovarian, 0.744 µM. Moreover, the TGI in the assay on PC-3 prostate was determined as 6.36 µM; with MDA-MB-435, 33.3 µM; in the assay on NCI/ADR-RES ovarian it was 8.22 µM.

As to `CC1=CSC2=NC(c3ccc(Cl)c(Cl)c3)=CC(c3ccc(Cl)cc3)N12` (stereo not drawn), the GI50 in the assay on PC-3 prostate, in the assay on MDA-MB-435 and in the assay on NCI/ADR-RES ovarian was greater than 100 µM throughout. For the same compound, the TGI in the assay with PC-3 prostate, in the assay with MDA-MB-435 and in the assay with NCI/ADR-RES ovarian was greater than 100 µM throughout.

For the compound `CC(=O)O[C@H]1C(N(C)C(=O)c2ccccc2)CC[C@]2(C)C3CC[C@@]4(C)C(CC(O)[C@@H]4C(C)N(C)C)[C@@H]3CCC12` (stereo partly drawn), the TGI in the assay with DMS 273 small cell lung, with M19-MEL melanoma and in the assay on LXFL 529 NSCLC was greater than 100 µM each time.

As for `COc1cc(C2c3cc4c(cc3[C@@H](Nc3ccc(C(=O)O)cc3)C3COC(=O)[C@H]23)OCO4)cc(OC)c1O` (stereo partly drawn), the total growth inhibition concentration (TGI) in the assay on DMS 273 small cell lung is 28.5 µM and > 17.5 µM; in the assay with M19-MEL melanoma it was 49.6 µM and > 17.5 µM; in the assay with LXFL 529 NSCLC it was 39.8 µM and > 17.5 µM.

For the compound `CCCCCCNC(=O)C1=C(C)NC(C)=C(C(=O)NCCCCCC)C1`, the TGI with PC-3 prostate, in the assay with MDA-N, in the assay on MDA-MB-435 and with NCI/ADR-RES ovarian was greater than 100 µM throughout.

With `COc1cc2c(cc1OCc1ccccc1)N=C[C@@H]1C/C(=C/C(=O)NCCCN3C(=O)c4cccc5cccc(c45)C3=O)CN1C2=O`, the GI50 in the assay on PC-3 prostate was 0.351 µM; with MDA-MB-435, 0.673 µM; in the assay on NCI/ADR-RES ovarian it was 12.8 µM. The TGI is 9.35 µM with PC-3 prostate, 3.05 µM with MDA-MB-435 and greater than 100 µM with NCI/ADR-RES ovarian.

Take `COc1ccc2c(c1)C(=O)CC(N)C2` (stereo not drawn): the TGI in the assay on PC-3 prostate, with MDA-N, in the assay with MDA-MB-435 and with NCI/ADR-RES ovarian was greater than 100 µM each time.

As for `COc1cc(OC2OC(C)C(O)C(O)C2O)cc2oc(-c3ccc(O)cc3)c(CC=C(C)C)c(=O)c12` (stereo not drawn), the figures for the GI50 in the assay with PC-3 prostate, in the assay on MDA-MB-435 and in the assay with NCI/ADR-RES ovarian were 8.32 µM, 20.5 µM and 24.3 µM, respectively. In addition, the TGI was 28.4 µM in the assay on PC-3 prostate, 59.9 µM in the assay on MDA-MB-435 and 93.3 µM in the assay with NCI/ADR-RES ovarian.

In the case of `CCN(CC)CCC1CC/C(=C\c2ccc(OC)cc2)C1=O` (stereo not drawn), the concentration for total growth inhibition (TGI) in the assay on DMS 273 small cell lung, in the assay with M19-MEL melanoma and with LXFL 529 NSCLC was greater than 100 µM throughout.
